Consider 27 molecules from ChEMBL document CHEMBL3763131, “Anion inhibition studies of the β-carbonic anhydrase from the pathogenic bacterium Vibrio cholerae” (Bioorg Med Chem Lett, 2016).

Structures are written as SMILES. Where “and” joins values, the source holds several entries; their conditions need not be identical. Identical values can stand only once.

Usually Ki stands for the equilibrium dissociation constant of an inhibitor or competing ligand from its target. A lower Ki goes with tighter binding.

Carbonic anhydrase 1, sequence (P00915 whole entry): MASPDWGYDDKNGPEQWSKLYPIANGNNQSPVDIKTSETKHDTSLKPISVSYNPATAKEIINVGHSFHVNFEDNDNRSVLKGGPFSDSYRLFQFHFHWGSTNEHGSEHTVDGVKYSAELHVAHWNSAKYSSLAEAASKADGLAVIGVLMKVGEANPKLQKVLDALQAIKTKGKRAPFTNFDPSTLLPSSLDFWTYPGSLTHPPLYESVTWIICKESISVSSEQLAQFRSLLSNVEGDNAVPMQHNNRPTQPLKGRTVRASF

The first assay addresses Carbonic anhydrase 1 (Homo sapiens, UniProt P00915). The experiment in a line: Inhibition of human carbonic anhydrase 1 preincubated for 15 mins by stopped-flow CO2 hydration assay.
For the molecule `F[B-](F)(F)F`, the Ki was greater than 200000 µM.

Molecule `N=C=[Se]` [ISOSELENOCYANATE] displayed a Ki of 8.5 µM.

Target in another assay: not listed separately
The experiment in a line: Inhibition of Vibrio cholerae alpha-carbonic anhydrase preincubated for 15 mins by stopped-flow CO2 hydration assay.
As for `O=S(=O)(O)NS(=O)(=O)O`, the affinity corresponds to a Ki of 88200 µM.

Turning to `O=S(=O)(O)OOS(=O)(=O)O`, the Ki was 84100 µM.

`F[B-](F)(F)F`: the Ki was greater than 200000 µM.

Take `O=[N+]([O-])O`: the Ki was determined as 670 µM.

Molecule `O=[Te](=O)(O)O` returned a Ki of 14500 µM.

`[N-]=[N+]=[N-]` displayed a Ki of 760 µM.

Take `O=C(O)O` [BICARBONATE]: the Ki was 4640 µM and 5130 µM.

Regarding `Br` [BROMIDE], the Ki worked out at 28000 µM.

The molecule `S=C(S)S` [CARBONOTRITHIOIC ACID] gave an inhibition constant (Ki) of 88 µM.

For the molecule `N#CO` [CYANATE], the Ki came to 75 µM. This Ki and that of the molecule before are within 1.5-fold of each other.

For `CCN(CC)C(=S)S` [DITIOCARB], the affinity, expressed as Ki, was 43 µM.

Take `F` [FLUORIDE ION]: the Ki is 800 µM.

On to `Cl` [HYDROCHLORIC ACID], for which affinity was put at a Ki of 930 µM.

For `S` [HYDROGEN SULFIDE], the affinity corresponds to a Ki of 74 µM.

Turning to `I` [IODIDE], the Ki came to 9730 µM.

With `N=C=[Se]` [ISOSELENOCYANATE], affinity was put at a Ki of 760 µM.

For the molecule `N=C=S` [ISOTHIOCYANATE], the Ki was found to be 820 µM.

As to `O=NO` [NITROUS ACID], the Ki turned out to be 34100 µM. This Ki lies about 42-fold higher than the previous one.

`[O-][Cl+3]([O-])([O-])O` [PERCHLORATE] registered a Ki greater than 200000 µM.

In the case of `O=[As](O)(O)c1ccccc1` [PHENYLARSONIC ACID], affinity was put at a Ki of 23 µM.

Regarding `OB(O)c1ccccc1` [PHENYLBORONIC ACID], the affinity, expressed as Ki, was 7 µM.

In turn, `O=P(O)(O)OP(=O)(O)O` [PYROPHOSPHORIC ACID] registered a Ki of 2960 µM. This Ki lies about 420-fold higher than the previous one.

Regarding `O=[Se](=O)(O)O` [SELENIC ACID], the affinity corresponds to a Ki of 60800 µM.

In turn, `NS(=O)(=O)O` [SULFAMATE] gave a Ki of 31 µM. This Ki lies about 2000-fold lower than the previous one.

Regarding `NS(N)(=O)=O` [SULFAMIDE], affinity was put at a Ki of 8 µM. Compared with the last molecule, the Ki is about 3.9-fold lower.

Take `O=S(=O)(O)O` [SULFURIC ACID]: the Ki is 850 µM.

For `O=S(O)O` [SULFUROUS ACID], the Ki was determined as 68 µM.
